Test systems include IGROV1 ovarian; HT29 colon; SN12C renal; LOX IMVI melanoma; KM12 colon; K-562 leukemia; RXF 393 renal; CAKI-1 renal; SK-OV-3 ovarian; HOP-92 NSCLC.
Common to all, as to assay: NCI anticancer screen, dose series, 48 h

The structures appear in SMILES notation. Several values for one entry are separate records, joined by “and”; a condition that tells them apart may be missing. Equal values may be shown once.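 A five-concentration, 48-hour dose response in 96-well plates underlies each endpoint, interpolated linearly between surrounding concentrations. GI50 marks 50% less growth. Definition used: TGI = concentration required for complete inhibition of growth.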

For `COc1cc2c(cc1OCCNC(=O)/C=C1\C[C@H]3C=Nc4cc(OCc5ccccc5)c(OC)cc4C(=O)N3C1)N=C[C@@H]1CCCN1C2=O`, the GI50 in the assay on IGROV1 ovarian is 1.42 µM; in the assay with HT29 colon it was 20.3 µM; with SN12C renal, 2.68 µM; in the assay on LOX IMVI melanoma, 2.75 µM; in the assay on KM12 colon, 9.31 µM; in the assay on K-562 leukemia, 2.78 µM. Besides, the GI50 with RXF 393 renal is 1.98 µM; in the assay with CAKI-1 renal, 32.3 µM; in the assay on SK-OV-3 ovarian it was 25.1 µM. Besides, the TGI with IGROV1 ovarian was 5.64 µM; with HT29 colon, > 100 µM; with SN12C renal, 15.8 µM; with LOX IMVI melanoma it was 7.31 µM; in the assay with KM12 colon it was 28.8 µM; in the assay on K-562 leukemia, 13.6 µM. The TGI in the assay with RXF 393 renal is 4.98 µM; in the assay with CAKI-1 renal, > 100 µM; with SK-OV-3 ovarian, 73.1 µM.

On to `c1cnc2c(c1)-n1cccc1C1(CCCCC1)NN2`, for which the TGI in the assay with HT29 colon, in the assay on SN12C renal, in the assay on LOX IMVI melanoma, in the assay on KM12 colon, in the assay with K-562 leukemia and in the assay with CAKI-1 renal was > 100 µM in each case.

`CN1CCCC2[C@@H]3CCC4c5nonc5CC[C@]4(C)C3CC[C@@]21C` (stereo partly drawn): the TGI in the assay with IGROV1 ovarian, in the assay on HT29 colon, in the assay with SN12C renal, with KM12 colon, with K-562 leukemia and with RXF 393 renal was > 100 µM throughout. In addition, the TGI in the assay on CAKI-1 renal and in the assay with SK-OV-3 ovarian was > 100 µM each time.

For `CN1CCN(C2=NC(=O)/C(=C\c3ccc(N(C)C)cc3)S2)CC1`, the GI50 in the assay on IGROV1 ovarian is 72.5 µM; with HT29 colon, 39.5 µM; in the assay on SN12C renal, > 100 µM; in the assay on LOX IMVI melanoma it was 75.1 µM; with KM12 colon, > 100 µM; with K-562 leukemia, > 100 µM. Besides, the GI50 with RXF 393 renal is 45.4 µM; in the assay on CAKI-1 renal, > 100 µM; in the assay with SK-OV-3 ovarian, > 100 µM. Besides, the TGI in the assay on IGROV1 ovarian, in the assay on HT29 colon, with SN12C renal, in the assay on LOX IMVI melanoma, with KM12 colon and in the assay on K-562 leukemia was > 100 µM in each case. The TGI with RXF 393 renal, in the assay with CAKI-1 renal and in the assay on SK-OV-3 ovarian was > 100 µM throughout.

In the case of `Cc1cccc(N2C(=O)/C(=C/C(Cl)=C/c3ccc([N+](=O)[O-])cc3)SC2=S)c1C`, the GI50 in the assay on HT29 colon was 1.13 µM; in the assay on SN12C renal, 2.03 µM; in the assay on LOX IMVI melanoma, 1.42 µM; with K-562 leukemia, 0.793 µM; in the assay on RXF 393 renal it was 1.63 µM; with SK-OV-3 ovarian it was 4.93 µM. Besides, the TGI in the assay with HT29 colon is > 100 µM; in the assay with SN12C renal, 5.05 µM; in the assay on LOX IMVI melanoma it was 3.25 µM; in the assay on K-562 leukemia, > 100 µM; with RXF 393 renal, 3.52 µM; in the assay with SK-OV-3 ovarian, > 100 µM.

On to `N=C1CCCC1C(=S)SCCC(N)=O` (stereo not drawn), for which the TGI in the assay with IGROV1 ovarian, in the assay on HT29 colon, in the assay on HOP-92 NSCLC, in the assay with SN12C renal, in the assay on KM12 colon and with RXF 393 renal was > 100 µM in each case. Also, the TGI in the assay on CAKI-1 renal and with SK-OV-3 ovarian was > 100 µM each time.

As for `O=c1[nH]ccc(CNC23CC4CC(CC(C4)C2)C3)c1O`, the TGI with IGROV1 ovarian, in the assay with HT29 colon, in the assay with SN12C renal, in the assay with KM12 colon, with K-562 leukemia and in the assay with RXF 393 renal was > 100 µM each time. For the same compound, the TGI with CAKI-1 renal and with SK-OV-3 ovarian was > 100 µM in each case.

For `COc1ccc(-c2nc3ccccc3s2)cc1OC`, the TGI in the assay on HT29 colon, in the assay with HOP-92 NSCLC, in the assay with SN12C renal, with LOX IMVI melanoma, in the assay on KM12 colon and in the assay on K-562 leukemia was > 100 µM in each case. Also, in the assay with SK-OV-3 ovarian, the TGI was determined as 62.9 µM.

On to `c1ccc2c(c1)[nH]c1c2nc2ccccn21`, for which the TGI in the assay with IGROV1 ovarian, in the assay with HT29 colon, in the assay on HOP-92 NSCLC, with SN12C renal, in the assay with KM12 colon and in the assay on K-562 leukemia was > 100 µM throughout. Moreover, the TGI with RXF 393 renal, in the assay with CAKI-1 renal and in the assay with SK-OV-3 ovarian was > 100 µM throughout.

As for `Cc1ccc(C2=CC(=O)c3ccccc3C2=O)n1-c1ccccc1`, the TGI in the assay on IGROV1 ovarian, in the assay with HT29 colon, in the assay on SN12C renal, in the assay on LOX IMVI melanoma, in the assay with KM12 colon and in the assay on K-562 leukemia was > 100 µM throughout. The TGI in the assay with RXF 393 renal and with SK-OV-3 ovarian was > 100 µM in each case.

As for `OCC(O)C(O)C(O)C(/C=N\Nc1ncnc2c(Br)cc(Br)cc12)=N/Nc1ncnc2c(Br)cc(Br)cc12` (stereo not drawn), the TGI in the assay on IGROV1 ovarian was 10.1 µM and > 100 µM; in the assay on HT29 colon it was 42 µM and > 100 µM; with SN12C renal, 18.8 µM and > 100 µM; in the assay on LOX IMVI melanoma, 31.4 µM and > 100 µM; with KM12 colon, 70.8 µM and > 100 µM; in the assay with K-562 leukemia, 26.9 µM and > 100 µM. For the same compound, the TGI is 26.7 µM and > 100 µM in the assay with CAKI-1 renal; 10 µM and > 100 µM with SK-OV-3 ovarian. The GI50 in the assay on SN12C renal was 5.09 µM and 24.8 µM.

Take `O=C1/C(=C/c2ccccc2)Oc2cc(O)ccc21`: the TGI in the assay on IGROV1 ovarian, with HT29 colon, in the assay with SN12C renal, in the assay with KM12 colon, with K-562 leukemia and in the assay with RXF 393 renal was > 100 µM throughout. Moreover, the TGI with CAKI-1 renal and in the assay on SK-OV-3 ovarian was > 100 µM in each case.

With `Cc1cc(Cl)ccc1NC(=O)CCCC(=O)C1C/C(=N/O)CC/C1=N\O` (stereo not drawn), the TGI with IGROV1 ovarian, in the assay on HT29 colon, with HOP-92 NSCLC, in the assay with SN12C renal, in the assay on KM12 colon and in the assay on K-562 leukemia was > 100 µM throughout. In addition, the TGI in the assay with CAKI-1 renal and in the assay on SK-OV-3 ovarian was > 100 µM each time.

`COc1ccc(-c2ccc(CC(=O)O)cc2)cc1OC`: the TGI in the assay with HT29 colon, with HOP-92 NSCLC, with SN12C renal, in the assay with KM12 colon, in the assay with K-562 leukemia and with CAKI-1 renal was > 100 µM each time. Besides, the TGI in the assay on SK-OV-3 ovarian was > 100 µM.

As to `Cn1c(=O)oc2cc(C3CCC(=O)N3Cc3csc(-c4ccccc4)n3)ccc21` (stereo not drawn), the TGI with IGROV1 ovarian, in the assay on HT29 colon, in the assay on SN12C renal, in the assay on LOX IMVI melanoma, in the assay on KM12 colon and in the assay with K-562 leukemia was > 100 µM each time. Moreover, the TGI with RXF 393 renal, in the assay with CAKI-1 renal and with SK-OV-3 ovarian was > 100 µM throughout.

The values above are taken from PubChem BioAssay (NCI).
